Data from US20220296623A1, “REDUCED NICOTINAMIDERIBOSIDES FOR TREATING OR PREVENTING KIDNEY DISEASE” (SOCIETE DES PRODUITS NESTLE S.A., priority 2019, published 2022).
“Also recorded” adds a separate entry of the source.

Key:
[1] = test system: equilibrative nucleoside transporters (ENTs); test: NRH action as NAD+ precursor under ENT blockage with NBTI; type: cell-based; settings: in the presence of S-(4-nitrobenzyl)-6-thioinosine (NBTI)
Excerpt: In order to understand the exact path by which NRH synthesizes NAD+, we initially evaluated whether NRH, could be transported into the cell by equilibrative nucleoside transporters (ENTs).

[2] = test system: NAD+ levels in liver, skeletal muscle and kidney; test: Tissue NAD+ levels after oral gavage of NR or NRH; type: in vivo, C57BI/6NTac mice
Experimental: 8 week-old C57BI/6NTac mice were orally gavaged with either saline (as vehicle), NR (500 mg/kg) or NRH (500 mg/kg). After 1 hour, liver, skeletal muscle and kidney NAD^+ levels were evaluated. All results are expressed as mean +/−SEM of n=5 mice per group. * indicates statistical difference at p<0.05 vs. vs. saline-treated mice. # indicates statistical difference at p<0.05 vs. NR treated mice.
Oral administration of NRH led to very similar results to those observed after IP administration. […] In contrast, NR levels were undetectable at 1 h after NR administration. As expected, NR treatment led to large increases in circulating NAM, which where ˜4-fold higher than those observed after NRH treatment.

C2C12 myotubes = test: NAD+ levels in C2C12 myotubes after NRH treatment; type: cell-based
Experimental: The ability of NRH to potently increase NAD+ was tested as well in other cell type models.

[3] = Stability in FBS supplemented media; type: in vitro ADME
Excerpt: NR degradation to NAM has been proposed as a limitation for its pharmacological efficacy. To evaluate whether NRH was also susceptible to degradation to NAM, we spiked NRH or NR in isolated mouse plasma. […] We also tested the stability of NRH in other matrixes.

AML12 hepatocytes = test: Intracellular NAD+ levels in AML12 hepatocytes after NRH or NR treatment (dose-response, time course); type: cell-based
Excerpt: Levels of NRH and other NAD-related metabolites in biological samples were obtained by using a cold liquid-liquid extraction using a mixture of methanol:water:chloroform in 5:3:5 (v/v), from which the polar phase was recovered for hydrophilic interaction ultra-high performance liquid chromatography mass spectrometry (UHPLC-MS) analysis. The UHPLC consisted of a binary pump, a cooled autosampler, and a column oven (DIONEX Ultimate 3000 UHPLC+ Focused, Thermo Scientific), connected to a triple quadrupole spectrometer (TSQ Vantage, Thermo Scientific) equipped with a heated electrospray ionisation (H-ESI) source. Of each sample, 2 μL were injected into the analytical column (2.1 mm×150 mm, 5 μm pore size, 200 Å HILICON iHILIC®-Fusion(P)), guarded by a pre-column (2.1 mm×20 mm, 200 Å HILICON iHILIC®-Fusion(P) Guard Kit) operating at 35° C. The mobile phase (10 mM ammonium acetate at pH 9, A, and acetonitrile, B) was pumped at 0.25 mL/min flow rate over a linear gradient of decreasing organic solvent (0.5-16 min, 90-25% B), followed by re-equilibration for a total run time of 30 min. The MS operated in positive mode at 3500 V with multiple reaction monitoring (MRM). The software Xcalibur v4.1.31.9 (Thermo Scientific) was used for instrument control, data acquisition and processing. Retention time and mass detection was confirmed by authentic standards.
Even at such relatively low dose, NRH achieved similar increases in intracellular NAD+ levels to those reached with NR at 50-fold higher concentrations.
NRH actions were also extremely fast (FIG. 3), as significant increases in NAD+ levels were observed within 5 minutes after NRH treatment.

[4] = test system: cisplatin-induced acute kidney injury; type: in vivo, C57BI/6NTac mice
Experimental: Simultaneously, mice were intraperitoneally injected with PBS (as vehicle) or NRH (250 mg/kg). PBS or NRH was injected at 24, 48 and 72 h after the initiation of the experiment. Kidneys of the mice were harvested, 4 h after the last injection, and NAD+ levels were analyzed in the kidney through mass spectrometry. All results are expressed as mean +/−SEM of n=5 mice per group. * indicates statistical difference at p<0.05 vs. vs. respective saline-treated mice
FIG. 7. […] Simultaneously, mice were intraperitoneally injected or not with PBS (as vehicle) or NRH (250 mg/kg) at 24, 48 and 72 h after the initiation of the experiment. Mice were sacrificed 4 h after the last injection, and plasma was collected to measure blood urea nitrogen levels. All results are expressed as mean +/−SEM of n=5 mice per group. * indicates statistical difference at p<0.05 vs. vs. respective saline-treated mice
Simultaneously, mice were intraperitoneally injected or not with PBS (as vehicle) or NRH (250 mg/kg). Urine was collected 24 h later to evaluate urea levels by NMR. All results are expressed as mean +/−SEM of n=5 mice per group. * indicates statistical difference at p<0.05 vs. vs. respective saline-treated mice.
Simultaneously, mice were intraperitoneally injected or not with PBS (as vehicle) or NRH (250 mg/kg). PBS or NRH were then injected at 24, 48 and 72 h after the initiation of the experiment. Mice were sacrificed 4 h after the last injection, and kidneys were fixed in OCT and used for immunohistochemistry against cleaved caspase 3. The cleaved caspase 3 staining was then quantified against the total area, using 10 images per mouse, 5 mice per group. All results are expressed as mean +/−SEM. * indicates statistical difference at p<0.05 vs. vs. respective saline-treated mice.
Simultaneously, mice were intraperitoneally injected or not with PBS (as vehicle) or NRH (250 mg/kg). PBS or NRH were then injected at 24, 48 and 72 h after the initiation of the experiment. 4 h after the last injection, and kidneys were obtained to isolate mRNA and analyze by qPCR makers of renal dysfunction (TGF-b1), glomerular dysfunction (fibronectin), apoptosis (BAX) and ER stress (BIP). All values are expressed as mean +/−SEM of n=4 mice per group. * indicates statistical difference at p<0.05 vs. respective vehicle-injected mice. # indicates statistical difference at p<0.05 vs. the respective mice in the control group.
Kidneys were harvested 4 hrs after the last NRH injection.

[5] = cisplatin 20 mg/kg, NRH 250 mg/kg
[6] = kidney qPCR, cisplatin plus NRH

SMILES: NC(=O)C1=CN([C@@H]2O[C@H](CO)[C@@H](O)[C@H]2O)C=CC1 [NRH, dihydro-1-beta-D-ribofuranosyl-3-pyridinecarboxamide]
- capacity as extracellular NAD+ precursor under ENT blockage [1]: largely lost its capacity as an extracellular NAD+ precursor; also recorded: a substantial action of NRH remained
- effect on hepatic NAD+ levels ([2]; oral administration, compared with NR): more potent effect on hepatic NAD+ levels than NR
- NAD+ precursor activity in liver, muscle and kidney ([2]; oral gavage 500 mg/kg, after 1 hour (FIG. 5)): orally active NAD+ precursor in liver, muscle and kidney
- NAD+ levels (C2C12 myotubes): highly elevated NAD+ levels
- degradation to NAM in FBS supplemented media [3]: did not degrade to NAM
- ability to increase intracellular NAD+ compared with NR (AML12 hepatocytes; AML12 hepatocytes): superior to that of NR
- time to significant increases in NAD+ levels after treatment (AML12 hepatocytes; AML12 hepatocytes): ≤ 5 min
- increase in intracellular NAD+ levels at maximal effect (AML12 hepatocytes; NRH around the millimolar range): more than 10 fold
- fold higher NR concentration needed for similar increases in intracellular NAD+ levels (AML12 hepatocytes; NRH at 10 μM vs NR): 50 fold
- concentration of maximal effects on NAD+ synthesis (AML12 hepatocytes; dose-response): around the millimolar range
- concentration at which NAD+ levels are significantly increased (AML12 hepatocytes; dose-response, AML12 hepatocytes): 10 µM
- NAD+ levels in kidney above control ([4]; 4 h after NRH supplementation): did not observe higher NAD^+ levels
- renal NADH levels ([4]; cisplatin 20 mg/kg IP, NRH 250 mg/kg IP at 0, 24, 48, 72 h, kidneys 4 h after last injection): prevented the drop in renal NAD^+ and NADH levels
- Me2PY and Me4PY levels in urine [4, 5]: further increased
- methyl-NAM levels in kidney [4, 5]: further increased methyl-NAM levels in kidney
- PARP activity ([4]; cisplatin mice treated with NRH): higher
- kidney structure (tubular necrosis, glomeruli dilatation, inflammation, cast formation) ([4]; histology, cisplatin 20 mg/kg, NRH 250 mg/kg): largely prevented
- presence of kidney casts ([4]; histology, cisplatin plus NRH): major decrease in the presence of kidney casts
- renal cell apoptosis (cleaved caspase 3 staining) ([4]; kidney immunohistochemistry, cisplatin plus NRH (FIG. 9)): protects against cisplatin-induced renal cell apoptosis
- BAX mRNA (marker of apoptosis) [4, 6]: prevented cisplatin-induced increases
- BIP mRNA (marker of ER stress) [4, 6]: prevented cisplatin-induced increases
- TGF-β1 expression [4, 6]: prevent the increase in TGF-β1 expression
- fibronectin mRNA (marker of glomerular dysfunction) [4, 6]: prevented cisplatin-induced increases
